pKd: −log10 of the molar value.

In one experiment the test system is IgG. The experiment is described as follows: IgG binding experiment, free IgG measured after overnight binding (FIG. 10). Also noted: species or system human. The note with it: PBS and water conditions.
Another experiment has as its system rabbit IgG. The experiment is described as follows: ELISA with pyridinium-biotin construct on IgG coated, BSA blocked wells vs BSA only wells (FIG. 20). The note with it: PBS buffer; femtomole range of construct; avidin-HRP detection. It is filed as binding. The source says: Another variation of ELISA assay is one in which the plate wells are first coated with rabbit IgG. After a wash with PBS buffer, the IgG coated wells are blocked with bovine serum albumin (BSA) to saturate the remaining surface of the wells in order to lower background noise. A set of control wells are coated and blocked with BSA only as described above. The IgG coated and BSA blocked wells are then reacted with pyridinium-biotin construct in PBS buffer. Increasing amounts of with pyridinium-biotin construct in femtomole range are added in different wells. Those wells are washed with PBS buffer and reacted with constant amount of avidin-Horseradish peroxidase (HRP) in PBS. The colorimetric product of the reaction is then detected by an ELISA plate reader.
In general terms: ELISA stands for enzyme-linked immunosorbent assay.

For experiment [1], the target named is human serum albumin (HSA) (Homo sapiens, UniProt P02768). The experiment is described as follows: Microscale thermophoresis binding affinity with HSA (Monolith NT.115). The note with it: construct 500 nM, HSA 125 μM-3.5 nM, compared with IgG. The procedure: (§1) Binding affinities of pyridinium constructs with macromolecules were measure using Monolith NT.115 system developed by Nano Temper technology (https://nanotempertech.com/monolith/). The Monolith NT.115 equipment measures the strength of the interactions between a fluorescently labeled or intrinsically fluorescent sample and a binding partner such as a macromolecule are measured while a temperature gradient is applied over time. The molecular mobility of a fluorescently labeled construct in a thermo gradient when alone and in presence of increasing concentrations of binding partner is compared. From this, binding affinity (Kd) is calculated from a fitted curve that plots normalized fluorescence against concentration of ligand.
Chain of human serum albumin (HSA) (P02768 25-609): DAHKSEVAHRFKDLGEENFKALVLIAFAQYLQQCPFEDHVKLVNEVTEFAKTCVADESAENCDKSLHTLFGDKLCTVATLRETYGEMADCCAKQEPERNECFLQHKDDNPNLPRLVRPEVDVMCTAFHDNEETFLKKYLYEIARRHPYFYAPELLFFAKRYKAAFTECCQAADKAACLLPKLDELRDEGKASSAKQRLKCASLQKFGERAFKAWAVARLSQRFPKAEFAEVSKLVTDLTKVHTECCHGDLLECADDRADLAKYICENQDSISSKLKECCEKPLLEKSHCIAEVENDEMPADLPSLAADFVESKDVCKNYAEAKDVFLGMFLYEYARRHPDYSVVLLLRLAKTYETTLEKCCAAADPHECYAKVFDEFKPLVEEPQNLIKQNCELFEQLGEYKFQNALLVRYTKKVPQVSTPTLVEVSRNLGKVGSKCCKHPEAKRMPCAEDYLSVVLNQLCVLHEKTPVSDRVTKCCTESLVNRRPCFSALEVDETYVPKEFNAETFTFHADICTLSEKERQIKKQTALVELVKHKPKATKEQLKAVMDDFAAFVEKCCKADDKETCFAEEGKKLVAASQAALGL
(§2) The IgG protein was tested at a concentration range of 12.5 μM-350 pM and the pyridinium-fluorescein construct was at a concentration of 500 nM. Likewise, for experiments involving HSA, the HSA protein was at a concentration range of 125 μM-3.5 nM and the pyridinium-fluorescein construct was at a concentration of 500 nM.
The experiment was repeated with human serum albumin (HSA) instead of IgG under similar conditions. The results of the binding affinity curve at increasing concentrations of HSA in two different solutions (PBS & Saline) are shown in FIG. 17.
A general note: In MST a laser heats a spot of the sample, and binding alters the fluorescence response.

For the next experiment, the target named is Immunoglobulin G (IgG). The experiment is described as follows: Microscale thermophoresis binding affinity with IgG (Monolith NT.115). Particulars: construct 500 nM, IgG 12.5 μM-350 pM. The protocol: as §1
The experiment was conducted to measure the binding affinity of the pyridinium construct containing fluorescein with increasing concentrations of Immunoglobulin G (IgG) in presence of PBS buffer and saline. The results of the binding affinity curve at increasing concentrations of IgG in two different solutions (PBS & Saline) are shown in FIG. 16.
as §2

On to `CCCCCCCCCCCCCCCC[N+](C)(C)C.[Br-]` [CTAB, Cetyl trimethylammonium bromide], for which the “binding to IgG” value in the experiment on IgG is given as “did not bind to the IgG protein”.
For the molecule `O=C(CCCCC1SCC2NC(=O)NC21)NCC[n+]1ccccc1` (stereo not drawn) [pyridinium constructs, 1-(2-(5-(2-oxohexahydro-1H-thieno[3,4-d]imidazol-4-yl)pentanamido)ethyl)pyridinium], the “binding affinity in ELISA, IgG vs BSA dilution curves” value with rabbit IgG is listed as “strong binding affinity of IgG even at lower concentrations when compared with that of BSA”.
One may read the pKd as −log10 of the Kd, conventionally taken in molar units. A higher pKd goes with a low Kd. For the molecule `O=C(NCC[n+]1ccccc1)c1ccc2c(c1)C1(OC2=O)c2ccc(O)cc2Oc2cc(O)ccc21` [pyridinium-fluorescein construct, 1-(2-(3′,6′-dihydroxy-3-oxo-3H-spiro[isobenzofuran-1,9′-xanthene]-6-ylcarboxamido)ethyl)pyridinium], the figures for the “binding affinity to HSA” value in experiment [1] (PBS solution) and in experiment [1] (saline solution) were “much lower than that of IgG” and “comparable to that of IgG”, respectively. The negative-log Kd (pKd) on Immunoglobulin G (IgG) (in PBS) is 7.70; at Immunoglobulin G (IgG) (in saline), 5.82.

The record behind these values is US20190298840A1, “FORMULATIONS COMPRISING HETEROCYCLIC RING SYSTEMS AND USES THEREOF” (Particle Sciences, Inc., priority 2016, published 2019).
